Legend:
[1] = tested on: type IV collagen; assay: Type IV collagen protein expression in three-dimensional skin model by western blotting and densitometry (Experimental Examples 2 and 5); type: cell-based; conditions: Homo sapiens, 168 h; 25 µM and 100 µM final concentrations, 7 days; at most (maximum), concentration dependent; α-tubulin internal standard; read-out: increase of the amount of type IV collagen expression in the three-dimensional skin model compared to the control
Description: The three-dimensional skin model produced following the protocol of the kit was acclimated in the medium supplied with the kit.
The cells after culturing were collected, lysates thereof were subjected to western blotting using an anti-human collagen antibody (COL4A3BP; Abcam), and the amount of type IV collagen protein expression was analyzed. Further, western blotting using an anti-α-tubulin antibody as the internal standard was also performed, and the obtained image data was subjected to densitometry analysis.
These solutions were added to three-dimensional skin models and cultured for 7 days. The lysates of cells after culturing were subjected to western blotting using an anti-human collagen antibody, and the amounts of type IV collagen expression in the cells were analyzed. As a negative control (Ctrl), an experiment was performed in which a DMSO solution was added alone to the three-dimensional skin model.
Further, western blotting using an anti-α-tubulin antibody as the internal standard was also performed, and the obtained image data was subjected to densitometry analysis.

[2] = tested on: type IV collagen gene; assay: Type IV collagen mRNA expression in human skin cells by microarray method (Experimental Example 1); type: cell-based; conditions: 120 h, cultured for 5 days, hTERT-immortalized human skin cells, read-out: increase of the expression amount of type IV collagen gene compared to the negative control experiment
Description: Human skin cells were immortalized by introducing the hTERT gene and acclimated in a predetermined medium, Prigrow III (APB). Thereafter, the pterostilbene monoglucoside (50 µM) was added to the conditioned medium and cultured for 5 days in a 5% CO2 environment at 37°C.
RNA was collected from the cells after culturing, and changes in the amount of type IV collagen mRNA expression were analyzed by microarray method. […] A negative control experiment was also performed in which the pterostilbene monoglucoside was not added to the conditioned medium.

[3] = target: T1, Tyrosinase (Cat. No. T3824, SIGMA) (Agaricus bisporus, UniProt C7FF04); assay: In vitro tyrosinase inhibition experiment (Experimental Example 3); type: biochemical; conditions: fold more excellent than the aglycone pterostilbene, based on IC50 values of Fig. 3
T1 construct: purchased SIGMA T3824
T1 sequence (C7FF04 2-392 limits assumed): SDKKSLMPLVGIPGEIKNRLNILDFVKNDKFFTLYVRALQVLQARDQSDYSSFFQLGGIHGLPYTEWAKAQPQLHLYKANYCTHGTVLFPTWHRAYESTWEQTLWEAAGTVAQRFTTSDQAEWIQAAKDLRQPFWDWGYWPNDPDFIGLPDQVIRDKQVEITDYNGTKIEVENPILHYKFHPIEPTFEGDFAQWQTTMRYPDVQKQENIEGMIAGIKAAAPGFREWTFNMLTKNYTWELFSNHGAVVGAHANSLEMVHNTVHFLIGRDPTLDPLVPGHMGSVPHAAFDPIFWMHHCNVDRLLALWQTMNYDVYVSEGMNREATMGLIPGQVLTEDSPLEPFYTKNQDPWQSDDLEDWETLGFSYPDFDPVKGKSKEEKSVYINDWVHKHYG
Description: The tyrosinase inhibitory effect of pterostilbene monoglucoside was analyzed (IC50 values were measured) based on a generally known method (e.g., Expert Opin Ther Pat. 2016; 26(3): 347-62). Tyrosinase (Cat. No. T3824, SIGMA) was used as tyrosinase. Further, pterostilbene (produced by Tokyo Chemical Industry Co., Ltd.; A in the figure), the pterostilbene monoglucoside above (B in the figure), and arbutin as a positive control (C in the figure) were used.

In the case of COc1cc(/C=C/c2ccc(OC3O[C@H](CO)[C@@H](O)[C@H](O)[C@H]3O)cc2)cc(OC)c1 (stereo partly drawn) [pterostilbene monoglucoside], the maximal fold induction [1] is reported as about 2.5, the fold induction at 50 µM [2] is reported as about 1.35 and the “tyrosinase inhibitory effect relative to pterostilbene (comparison of IC50 values)” value [3] is reported as about 5.5 times.
